For test [1], the system named is E. coli. Kind of test: Biofilm formation inhibition, crystal violet reporter assay. The test is classed as cell-based. The conditions noted are these: Escherichia coli, 100 μM. Here is the method:
(§1) The ability of each member of the pilot library to inhibit either E. coli or MDRAB biofilm formation at 100 μM was assessed using a crystal violet reporter assay (O'Toole et al., Mol. Microbiol., 1998, 30: 295-304).
This is typically indicative of biofilm inhibition via a traditional microbicidal mechanism instead of a mechanism that modulates biofilm formation through non-microbicidal mechanisms. […] At this concentration, a 97% reduction in bacterial growth was observed.

Test [2] concerns MDRAB. The test is described as above. The test is classed as cell-based. Here is the method: as §1
Test [3] deals with E. coli. Briefly: Broth microdilution MIC. The conditions noted are these: Escherichia coli. The test is classed as cell-based. Here is the method:
(§2) Once it was determined that this specific 4,5-disubstitution pattern imparted microbicidal activity onto the 2-AI framework, this activity was quantified by measuring the MIC of each derivative against a variety of representative pathogenic bacterial strains using the microdilution protocol (CSLI, Performance Standards for Antimicrobial Suceptibility Testing; Nineteenth Informational Supplement, Clinical and Laboratory Standards Institute, Wayne, Pa., 2009). E. coli, MDRAB, P. aeruginosa, MRSA, MSSA, S. epidermidis and VRE were used for initial evaluation. From this screen, compound 15 was determined to be the lead compound and had MIC values (μg/mL) of 2, 2, 1, 0.5, 0.25, and 1 against E. coli, MDRAB, MRSA, VRE, S. Epidermidis and MSSA.
(§3) S. aureus (ATCC #29213), S. epidermidis (ATCC #29886), MRSA (ATCC # BAA-44), MDRAB (ATCC # BAA-1605), vancomycin resistant Enterococcus faecium (VRE) (ATCC #51559) and E. coli (ATCC #35695) were obtained from the ATCC. Mechanically difibrinated sheep blood (DSB100) was obtained from Hemostat Labs. Mueller-Hinton medium was purchased from Fluka (#70192).
(§4) Broth Microdilution Method for MIC Determination.

Test [4] concerns MDRAB. Briefly: Broth microdilution MIC. The class given is cell-based. Here is the method:
as §2, §3, §4

The test system of the next test is S. epidermidis. Briefly: Broth microdilution MIC. The test is classed as cell-based. Here is the method:
as §2, §3, §4

The test system of another test is MRSA. Briefly: Broth microdilution MIC. The test is classed as cell-based, methicillin-resistant S. aureus. The following applies: Staphylococcus aureus. Here is the method:
as §2, §3, §4

For a further test, the system named is MSSA. Kind of test: Broth microdilution MIC. The class given is cell-based, S. aureus. The following applies: Staphylococcus aureus. Here is the method: as §2, §3, §4
The next test relates to VRE. Kind of test: Broth microdilution MIC. The test is classed as cell-based, vancomycin resistant Enterococcus faecium. The conditions noted are these: Enterococcus. Here is the method:
as §2, §3, §4

The next test has as its system Vibrio cholerae. Kind of test: Marine bacteria microdilution MIC. The class given is cell-based. The following applies: Vibrio cholerae, V. cholerae.
The subject of a further test is Vibrio vulnificus. Kind of test: Marine bacteria microdilution MIC. The following applies: Vibrio vulnificus, V. vulnificus.
A further test has as its system Listonella anguillarum. Kind of test: Marine bacteria microdilution MIC. The following applies: Vibrio anguillarum, L. anguillarum.
For test [5], the system named is Rhodospirillum salexigens. Briefly: Marine bacteria microdilution MIC. The following applies: Rhodothalassium salexigens, R. salexigens.
The next test has as its system all of the test strains. Briefly: Antibiotic activity (MIC) of control 2-aminoimidazoles against the test strains. The test is classed as cell-based. Here is the method:
To examine the necessity of the 4,5-disubstitution pattern for antimicrobial activity of the 2-aminoimidazole scaffold, two monosubstituted 2-aminoimidazole analogues of compound 19 were synthesized and screened alongside the parent 2-aminoimidazole for antibiotic activity (Scheme 2). Heptanoic acid and phenylhexanoic acid were treated with oxalyl chloride with catalytic dimethyl formamide in dichloromethane to produce the respective acid chlorides, which were then reacted with diazomethane and quenched with hydrobromic acid to make the respective alpha-bromo ketones. These alpha-bromo ketones were separately cyclized with boc-guanidine, providing a boc-protected 2-aminoimidazole scaffold that was subsequently deprotected upon treatment with trifluoroacetic acid in dichloromethane to yield 22 and 23.
as §4

[6] abbreviates: Staphylococcus epidermidis, read-out: MIC.

For 7 compounds, inhibition, MIC and antibiotic activity results are on record in patent publication US9815794B2, “Inhibition of bacterial biofilms and microbial growth with imidazole derivatives” (North Carolina State University, priority 2011, dated 2017).

Values after ≈ are worked out from the molar mass of the structure shown. Like-named read-outs stand apart in the source and are kept apart here.

With `Cc1[nH]c(N)nc1CCCCCc1ccccc1` [Compound 11, 5-methyl-4-(5-phenylpentyl)-1H-imidazol-2-amine], the inhibition at 100 µM in the test on E. coli [1] is 96.3 ± 0.08%; in the test on MDRAB [2], over 99%. Moreover, the MIC with E. coli [3] amounted to 8 µg/mL (≈ 32.9 µM); against MDRAB [4] it was 8 µg/mL (≈ 32.9 µM); in the test on S. epidermidis (setting [6]), 1 µg/mL (≈ 4.11 µM); against MRSA, 4 µg/mL (≈ 16.4 µM); against MSSA, 2 µg/mL (≈ 8.22 µM); against VRE it was 8 µg/mL (≈ 32.9 µM). For the same compound, the minimal inhibitory concentration (MIC) was determined as 27.9 µg/mL (≈ 115 µM) in the test on Vibrio cholerae, 13.9 µg/mL (≈ 57.1 µM) against Vibrio vulnificus, 13.9 µg/mL (≈ 57.1 µM) in the test with Listonella anguillarum and 7 µg/mL (≈ 28.8 µM) in test [5].

In the test on S. epidermidis, `Cl.Nc1nc(CCCCCc2ccccc2)c[nH]1` [Compound 23] returned a minimal inhibitory concentration (MIC) of 0.05 µg/mL. Further, the antibiotic activity entry in the test on all of the test strains (any of the test strains except for S. epidermidis) is “no notable antibiotic activity”.

Take `CCc1[nH]c(N)nc1CCCCCc1ccccc1` [Compound 12, 5-ethyl-4-(5-phenylpentyl)-1H-imidazol-2-amine]: the figures for the inhibition at 100 µM with E. coli [1] and in the test on MDRAB [2] were over 99% and 94.5 ± 0.2%, respectively. Moreover, the MIC turned out to be 16 µg/mL (≈ 62.2 µM) against E. coli [3]; 32 µg/mL (≈ 124 µM) with MDRAB [4]; 2 µg/mL (≈ 7.77 µM) with S. epidermidis (setting [6]); 8 µg/mL (≈ 31.1 µM) with MRSA; 4 µg/mL (≈ 15.5 µM) in the test with MSSA; 8 µg/mL (≈ 31.1 µM) with VRE. Besides, the MIC in the test on Vibrio cholerae was determined as 29.4 µg/mL (≈ 114 µM); against Vibrio vulnificus it was 29.4 µg/mL (≈ 114 µM); against Listonella anguillarum, 14.7 µg/mL (≈ 57.1 µM); in test [5], 14.7 µg/mL (≈ 57.1 µM).

With `CCCc1[nH]c(N)nc1CCCCCc1ccccc1` [Compound 13, 4-(5-phenylpentyl)-5-propyl-1H-imidazol-2-amine], the inhibition at 100 µM with E. coli [1] is 95.8 ± 1.5%; in the test on MDRAB [2], 87.8 ± 0.3%. For the same compound, the minimal inhibitory concentration (MIC) in the test on E. coli [3] worked out at 8 µg/mL (≈ 29.5 µM); with MDRAB [4], 8 µg/mL (≈ 29.5 µM); in the test on S. epidermidis (setting [6]), 0.5 µg/mL (≈ 1.84 µM); with MRSA, 4 µg/mL (≈ 14.7 µM); in the test on MSSA, 4 µg/mL (≈ 14.7 µM); against VRE it was 4 µg/mL (≈ 14.7 µM). Further, the minimum inhibitory concentration (MIC) came to 15.4 µg/mL (≈ 56.7 µM) with Vibrio cholerae, 3.85 µg/mL (≈ 14.2 µM) in the test on Vibrio vulnificus, 7.7 µg/mL (≈ 28.4 µM) against Listonella anguillarum and 3.85 µg/mL (≈ 14.2 µM) in [5].

For `Nc1ncc[nH]1` [Compound 21, 2-aminoimidazole, reference compound], in the test on all of the test strains (highest concentration tested (36 μg/mL), every bacterial strain), the antibiotic activity result is “no antibiotic activity”.

Take `CCCCc1[nH]c(N)nc1CCCCCc1ccccc1` [Compound 14, 5-butyl-4-(5-phenylpentyl)-1H-imidazol-2-amine]: the inhibition at 100 µM with E. coli [1] was found to be 96.9 ± 1.1%; in the test with MDRAB [2], 85.4 ± 0.7%. Moreover, the MIC in the test on E. coli [3] was determined as 4 µg/mL (≈ 14 µM); with MDRAB [4] it was 4 µg/mL (≈ 14 µM); with S. epidermidis (setting [6]), 0.25 µg/mL (≈ 0.876 µM); against MRSA, 2 µg/mL (≈ 7.01 µM); in the test on MSSA, 2 µg/mL (≈ 7.01 µM); against VRE, 2 µg/mL (≈ 7.01 µM). Besides, the minimal inhibitory concentration (MIC) in the test with Vibrio cholerae was determined as 8.05 µg/mL (≈ 28.2 µM); with Vibrio vulnificus, 4.02 µg/mL (≈ 14.1 µM); against Listonella anguillarum, 4.02 µg/mL (≈ 14.1 µM); in [5], 8.05 µg/mL (≈ 28.2 µM).

Regarding `CCCCCCc1c[nH]c(N)n1.Cl` [Compound 22, 4-hexyl-1H-imidazol-2-amine hydrochloride], the minimum inhibitory concentration (MIC) in the test on S. epidermidis (setting [6]) is 0.04 µg/mL; in the test with all of the test strains (Staphylococcus epidermidis, all of the test strains except for S. epidermidis), over 41 µg/mL.
